Assay results published in ChEMBL document CHEMBL4152219, “Discovery of 1,8-acridinedione derivatives as novel GCN5 inhibitors via high throughput screening” (Eur J Med Chem, 2018).
The source made the active and inactive calls. The rule behind the calls is not given here.

Assays:
[1] = molecular target: Histone acetyltransferase GCN5 (Saccharomyces cerevisiae S288c) (UniProt Q03330); test: Inhibition of yeast GCN5 (99 to 262 residues) expressed in Escherichia coli BL21 (DE3) at 33 uM preincubated for 15 mins followed by biotin tagged H3 peptide ( 1 to 23 residues) and [3H]-Ac-CoA addition and measured after 60 mins by radioactive acetylation assay
[2] = molecular target: T1, Histone acetyltransferase GCN5 (Saccharomyces cerevisiae S288c, UniProt Q03330); test: Inhibition of yeast GCN5 (99 to 262 residues) expressed in Escherichia coli BL21 (DE3) preincubated for 15 mins followed by biotin tagged H3 peptide ( 1 to 23 residues) and [3H]-Ac-CoA addition and measured after 60 mins by radioactive acetylation assay
[3] = molecular target: Histone acetyltransferase GCN5 (Saccharomyces cerevisiae S288c) (UniProt Q03330); test: Inhibition of yeast GCN5 (99 to 262 residues) expressed in Escherichia coli BL21 (DE3) at 100 uM using biotin tagged H3 peptide ( 1 to 23 residues) as substrate preincubated for 30 mins followed by AC-CoA and substrate addition and measured after 30 mins by AlphaScreen assay
[4] = molecular target: Histone acetyltransferase GCN5 (Saccharomyces cerevisiae S288c) (UniProt Q03330); test: Binding affinity to yeast GCN5 (99 to 262 residues) expressed in Escherichia coli BL21 (DE3) at 200 uM by STD NMR spectroscopy
[5] = molecular target: T1, Histone acetyltransferase GCN5; test: Binding affinity to yeast GCN5 (99 to 262 residues) expressed in Escherichia coli BL21 (DE3) by SPR analysis
[6] = molecular target: Histone acetyltransferase GCN5 (Saccharomyces cerevisiae S288c) (UniProt Q03330); test: Binding affinity to yeast GCN5 (99 to 262 residues) expressed in Escherichia coli BL21 (DE3) at 200 uM by CPMG NMR spectroscopy
MV4-11 [7] = test: Antiproliferative activity against human MV4-11 cells after 3 days by celltiter-glo luminescent assay; assay type: functional, cell-based; settings: for IC50: MV4-11, 72 h
[8] = molecular target: Histone acetyltransferase KAT2A (Homo sapiens) (UniProt Q92830); test: Inhibition of GCN5 in human MV4-11 cells assessed as reduction of acetylated H3K14 level up to 100 uM after 24 hrs by Western blot analysis; assay type: cell-based
MV4-11 [9] = test: Induction of apoptosis in human MV4-11 cells assessed as early apototic cells at 20 uM after 72 hrs by Annexin-V FITC/propidium iodide staining based flow cytometric analysis (reference value: 0.75%); assay type: functional
[10] = Antiproliferative activity against human […] cells after 3 days by celltiter-glo luminescent assay; assay type: cell-based; settings: 72 h
MV4-11 [11] = test: Induction of apoptosis in human MV4-11 cells assessed as late apototic cells at 20 uM after 72 hrs by Annexin-V FITC/propidium iodide staining based flow cytometric analysis (reference value: 3.41%); assay type: functional
MV4-11 [12] = test: Induction of apoptosis in human MV4-11 cells assessed as necrotic cells at 20 uM after 72 hrs by Annexin-V FITC/propidium iodide staining based flow cytometric analysis (reference value: 0.66%); assay type: functional
MV4-11 [13] = test: Cell cycle arrest in human MV4-11 cells accumulation at G2 phase at 12.5 uM after 24 hrs bby propidium iodide staining-based flow cytometric analysis (reference value: 4.68%); assay type: functional
HUVEC = test: Antiproliferative activity against HUVEC after 3 days by celltiter-glo luminescent assay; assay type: cell-based; settings: human, 72 h
MV4-11 [14] = test: Cell cycle arrest in human MV4-11 cells accumulation at S phase at 12.5 uM after 24 hrs bby propidium iodide staining-based flow cytometric analysis (reference value: 42.77%); assay type: functional
MV4-11 [15] = test: Induction of apoptosis in human MV4-11 cells assessed as late apototic cells at 40 uM after 72 hrs by Annexin-V FITC/propidium iodide staining based flow cytometric analysis (reference value: 3.41%); assay type: functional
MV4-11 [16] = test: Induction of apoptosis in human MV4-11 cells assessed as necrotic cells at 40 uM after 72 hrs by Annexin-V FITC/propidium iodide staining based flow cytometric analysis (reference value: 0.66%); assay type: functional
MV4-11 [17] = test: Cell cycle arrest in human MV4-11 cells accumulation at G1 phase at 25 uM after 24 hrs bby propidium iodide staining-based flow cytometric analysis (reference value: 52.56%); assay type: functional
[18] = molecular target: Histone acetyltransferase p300 (Homo sapiens) (UniProt Q09472); test: Inhibition of p300 (unknown origin) at 33 uM relative to control
MV4-11 [19] = test: Cell cycle arrest in human MV4-11 cells accumulation at G0/G1 phase after 24 hrs bby propidium iodide staining-based flow cytometric analysis; assay type: functional
MV4-11 [20] = test: Induction of apoptosis in human MV4-11 cells assessed as early apototic cells at 40 uM after 72 hrs by Annexin-V FITC/propidium iodide staining based flow cytometric analysis (reference value: 0.75%); assay type: functional
MV4-11 [21] = test: Cell cycle arrest in human MV4-11 cells accumulation at G1 phase at 12.5 uM after 24 hrs bby propidium iodide staining-based flow cytometric analysis (reference value: 52.56%); assay type: functional
MV4-11 [22] = test: Cell cycle arrest in human MV4-11 cells accumulation at G2 phase at 25 uM after 24 hrs bby propidium iodide staining-based flow cytometric analysis (reference value: 4.68%); assay type: functional
MV4-11 [23] = test: Induction of apoptosis in human MV4-11 cells assessed as viable cells at 40 uM after 72 hrs by Annexin-V FITC/propidium iodide staining based flow cytometric analysis (reference value: 95.2%); assay type: functional; settings: MV4-11, 72 h, read-out: Activity
MV4-11 [24] = test: Induction of apoptosis in human MV4-11 cells after 72 hrs by Annexin-V FITC/propidium iodide staining based flow cytometric analysis; assay type: functional, cell-based
[25] = molecular target: Histone-lysine N-methyltransferase EZH2 (Homo sapiens) (UniProt Q15910); test: Inhibition of EZH2 (unknown origin) at 33 uM relative to control
MV4-11 [26] = test: Cell cycle arrest in human MV4-11 cells accumulation at S phase at 25 uM after 24 hrs bby propidium iodide staining-based flow cytometric analysis (reference value: 42.77%); assay type: functional
MV4-11 [27] = test: Induction of apoptosis in human MV4-11 cells assessed as viable cells at 20 uM after 72 hrs by Annexin-V FITC/propidium iodide staining based flow cytometric analysis (reference value: 95.2%); assay type: functional; settings: MV4-11, 72 h, read-out: Activity
[28] = molecular target: T2, Histone-lysine N-methyltransferase EHMT2 (Homo sapiens) (UniProt Q96KQ7); test: Inhibition of G9a (unknown origin) at 33 uM relative to control
T2 sequence (whole entry): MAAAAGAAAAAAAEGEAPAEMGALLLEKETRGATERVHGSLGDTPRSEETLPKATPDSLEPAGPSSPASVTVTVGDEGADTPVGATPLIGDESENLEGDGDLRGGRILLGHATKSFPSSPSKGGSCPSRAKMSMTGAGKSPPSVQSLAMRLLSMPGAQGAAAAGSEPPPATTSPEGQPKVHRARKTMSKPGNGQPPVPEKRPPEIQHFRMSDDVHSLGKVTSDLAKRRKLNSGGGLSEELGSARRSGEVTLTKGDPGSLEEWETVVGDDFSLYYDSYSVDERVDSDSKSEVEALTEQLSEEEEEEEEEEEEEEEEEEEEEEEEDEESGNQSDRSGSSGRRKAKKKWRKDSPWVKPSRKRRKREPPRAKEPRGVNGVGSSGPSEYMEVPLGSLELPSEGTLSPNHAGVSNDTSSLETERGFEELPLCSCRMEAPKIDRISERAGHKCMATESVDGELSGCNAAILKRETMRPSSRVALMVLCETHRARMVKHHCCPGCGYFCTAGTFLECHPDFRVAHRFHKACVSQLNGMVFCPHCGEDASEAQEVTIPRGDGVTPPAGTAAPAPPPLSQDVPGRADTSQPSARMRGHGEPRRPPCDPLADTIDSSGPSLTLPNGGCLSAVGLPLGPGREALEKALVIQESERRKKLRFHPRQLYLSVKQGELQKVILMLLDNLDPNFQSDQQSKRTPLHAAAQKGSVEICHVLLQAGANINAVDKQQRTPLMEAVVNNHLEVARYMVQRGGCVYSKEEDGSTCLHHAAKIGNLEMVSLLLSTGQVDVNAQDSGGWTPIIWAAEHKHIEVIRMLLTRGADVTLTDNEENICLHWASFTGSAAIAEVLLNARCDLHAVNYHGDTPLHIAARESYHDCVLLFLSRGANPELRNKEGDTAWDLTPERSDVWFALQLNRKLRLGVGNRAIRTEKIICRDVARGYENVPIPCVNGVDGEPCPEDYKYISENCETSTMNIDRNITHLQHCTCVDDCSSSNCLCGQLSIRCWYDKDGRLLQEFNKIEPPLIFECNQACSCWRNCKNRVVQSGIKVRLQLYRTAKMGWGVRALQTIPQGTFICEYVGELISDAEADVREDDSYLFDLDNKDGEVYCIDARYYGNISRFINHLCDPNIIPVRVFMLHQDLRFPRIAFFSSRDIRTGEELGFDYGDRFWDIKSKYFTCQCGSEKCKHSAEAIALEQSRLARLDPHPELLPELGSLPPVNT

T1 sequence (Q03330 whole entry, the tested form may be a part): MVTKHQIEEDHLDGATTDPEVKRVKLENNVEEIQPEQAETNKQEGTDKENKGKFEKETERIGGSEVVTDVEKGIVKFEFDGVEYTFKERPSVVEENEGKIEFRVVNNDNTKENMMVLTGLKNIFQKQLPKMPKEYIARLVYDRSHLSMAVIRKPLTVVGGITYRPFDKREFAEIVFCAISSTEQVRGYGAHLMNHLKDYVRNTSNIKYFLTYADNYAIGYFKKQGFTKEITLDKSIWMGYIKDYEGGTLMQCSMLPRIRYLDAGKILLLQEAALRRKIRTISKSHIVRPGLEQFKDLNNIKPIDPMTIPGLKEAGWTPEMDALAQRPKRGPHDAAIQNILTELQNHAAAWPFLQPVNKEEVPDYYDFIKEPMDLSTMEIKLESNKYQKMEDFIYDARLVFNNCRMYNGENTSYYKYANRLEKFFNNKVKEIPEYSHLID
Histone acetyltransferase GCN5 (Saccharomyces cerevisiae S288c), sequence (Q03330 whole entry, the tested form may be a part): as above
Histone acetyltransferase KAT2A (Homo sapiens), sequence (Q92830 2-837 limits assumed): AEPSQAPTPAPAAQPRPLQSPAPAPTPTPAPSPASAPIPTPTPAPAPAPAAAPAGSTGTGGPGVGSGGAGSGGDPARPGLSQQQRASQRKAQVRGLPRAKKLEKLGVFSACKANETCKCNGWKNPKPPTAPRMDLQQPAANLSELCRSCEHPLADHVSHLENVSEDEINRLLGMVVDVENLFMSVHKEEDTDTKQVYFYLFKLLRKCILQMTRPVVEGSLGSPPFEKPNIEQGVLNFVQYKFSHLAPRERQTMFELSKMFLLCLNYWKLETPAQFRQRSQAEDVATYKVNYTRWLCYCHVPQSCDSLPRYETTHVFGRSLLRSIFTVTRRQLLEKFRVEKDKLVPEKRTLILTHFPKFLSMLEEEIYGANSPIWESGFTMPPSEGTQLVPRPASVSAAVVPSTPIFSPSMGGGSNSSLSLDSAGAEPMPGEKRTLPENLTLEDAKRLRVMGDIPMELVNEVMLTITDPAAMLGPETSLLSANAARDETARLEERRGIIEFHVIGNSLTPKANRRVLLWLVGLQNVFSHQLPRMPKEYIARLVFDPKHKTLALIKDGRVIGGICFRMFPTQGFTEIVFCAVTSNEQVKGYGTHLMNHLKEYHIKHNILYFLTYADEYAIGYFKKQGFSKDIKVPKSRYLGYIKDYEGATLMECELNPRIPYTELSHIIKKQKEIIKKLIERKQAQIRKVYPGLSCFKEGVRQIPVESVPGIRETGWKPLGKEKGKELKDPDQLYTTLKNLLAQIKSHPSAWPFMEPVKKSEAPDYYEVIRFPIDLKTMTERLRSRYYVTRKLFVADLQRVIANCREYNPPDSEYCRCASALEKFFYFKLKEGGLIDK
Histone acetyltransferase p300 (Homo sapiens), sequence (Q09472 whole entry): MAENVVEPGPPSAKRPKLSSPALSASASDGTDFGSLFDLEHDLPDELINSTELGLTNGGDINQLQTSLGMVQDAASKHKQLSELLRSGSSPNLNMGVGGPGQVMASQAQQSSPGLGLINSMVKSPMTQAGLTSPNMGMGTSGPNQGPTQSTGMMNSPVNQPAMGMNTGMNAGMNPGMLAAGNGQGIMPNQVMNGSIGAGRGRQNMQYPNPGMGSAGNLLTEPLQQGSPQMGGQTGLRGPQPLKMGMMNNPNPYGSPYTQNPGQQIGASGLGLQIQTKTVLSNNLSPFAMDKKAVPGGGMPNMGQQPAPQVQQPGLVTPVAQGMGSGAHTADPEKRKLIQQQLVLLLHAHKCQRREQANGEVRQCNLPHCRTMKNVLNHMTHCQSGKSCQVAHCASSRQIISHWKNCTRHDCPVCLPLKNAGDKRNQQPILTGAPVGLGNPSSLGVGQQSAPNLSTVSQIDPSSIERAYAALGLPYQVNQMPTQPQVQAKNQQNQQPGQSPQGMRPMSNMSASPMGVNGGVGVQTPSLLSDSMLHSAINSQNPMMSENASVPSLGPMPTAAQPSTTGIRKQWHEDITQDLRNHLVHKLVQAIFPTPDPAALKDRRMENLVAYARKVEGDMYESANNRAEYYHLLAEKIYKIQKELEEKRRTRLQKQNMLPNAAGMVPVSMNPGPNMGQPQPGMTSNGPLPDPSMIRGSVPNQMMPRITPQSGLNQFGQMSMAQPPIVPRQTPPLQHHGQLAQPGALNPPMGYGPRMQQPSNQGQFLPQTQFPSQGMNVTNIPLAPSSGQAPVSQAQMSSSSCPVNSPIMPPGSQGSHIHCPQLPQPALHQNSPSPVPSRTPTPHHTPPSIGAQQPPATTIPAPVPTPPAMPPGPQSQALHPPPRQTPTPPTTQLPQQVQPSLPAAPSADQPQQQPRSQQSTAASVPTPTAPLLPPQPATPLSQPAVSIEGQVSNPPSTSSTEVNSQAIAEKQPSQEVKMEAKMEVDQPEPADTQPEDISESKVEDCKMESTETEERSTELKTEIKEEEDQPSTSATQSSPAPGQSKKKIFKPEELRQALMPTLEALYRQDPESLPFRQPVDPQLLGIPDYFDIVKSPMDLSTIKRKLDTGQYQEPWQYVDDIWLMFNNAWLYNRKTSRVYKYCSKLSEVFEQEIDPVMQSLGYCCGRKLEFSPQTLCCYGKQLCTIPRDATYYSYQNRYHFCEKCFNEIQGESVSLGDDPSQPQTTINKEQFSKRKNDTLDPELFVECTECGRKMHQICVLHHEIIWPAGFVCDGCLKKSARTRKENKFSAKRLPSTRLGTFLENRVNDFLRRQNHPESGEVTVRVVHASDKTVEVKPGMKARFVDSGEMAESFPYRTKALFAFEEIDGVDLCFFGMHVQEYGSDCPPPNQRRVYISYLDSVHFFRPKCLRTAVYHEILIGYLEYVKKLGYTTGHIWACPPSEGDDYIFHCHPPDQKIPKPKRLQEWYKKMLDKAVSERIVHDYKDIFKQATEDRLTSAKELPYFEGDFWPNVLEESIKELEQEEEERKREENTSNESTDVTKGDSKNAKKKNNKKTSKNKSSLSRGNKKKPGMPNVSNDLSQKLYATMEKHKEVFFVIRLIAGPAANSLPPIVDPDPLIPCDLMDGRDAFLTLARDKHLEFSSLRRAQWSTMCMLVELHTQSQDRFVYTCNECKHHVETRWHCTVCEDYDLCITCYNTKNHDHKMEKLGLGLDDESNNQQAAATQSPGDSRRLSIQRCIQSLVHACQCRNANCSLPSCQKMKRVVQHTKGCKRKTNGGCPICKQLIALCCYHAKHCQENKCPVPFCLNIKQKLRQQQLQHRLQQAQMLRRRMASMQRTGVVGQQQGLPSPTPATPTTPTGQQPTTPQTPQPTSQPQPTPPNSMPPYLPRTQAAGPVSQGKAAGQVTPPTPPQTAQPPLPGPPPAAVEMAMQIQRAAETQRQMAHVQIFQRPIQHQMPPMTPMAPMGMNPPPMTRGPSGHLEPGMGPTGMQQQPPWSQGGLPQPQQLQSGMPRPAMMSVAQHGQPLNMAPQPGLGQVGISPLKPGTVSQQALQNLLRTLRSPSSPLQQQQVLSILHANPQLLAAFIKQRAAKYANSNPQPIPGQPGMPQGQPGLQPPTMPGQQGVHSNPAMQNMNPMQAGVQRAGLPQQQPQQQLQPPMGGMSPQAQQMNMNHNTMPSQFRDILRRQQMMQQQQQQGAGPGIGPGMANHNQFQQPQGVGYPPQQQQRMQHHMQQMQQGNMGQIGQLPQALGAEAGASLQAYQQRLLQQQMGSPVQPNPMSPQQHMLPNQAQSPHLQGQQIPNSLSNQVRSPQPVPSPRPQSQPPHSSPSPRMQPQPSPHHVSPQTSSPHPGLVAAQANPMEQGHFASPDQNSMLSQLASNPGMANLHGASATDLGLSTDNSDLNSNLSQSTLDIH
Histone-lysine N-methyltransferase EZH2 (Homo sapiens), sequence (Q15910 whole entry, looked up): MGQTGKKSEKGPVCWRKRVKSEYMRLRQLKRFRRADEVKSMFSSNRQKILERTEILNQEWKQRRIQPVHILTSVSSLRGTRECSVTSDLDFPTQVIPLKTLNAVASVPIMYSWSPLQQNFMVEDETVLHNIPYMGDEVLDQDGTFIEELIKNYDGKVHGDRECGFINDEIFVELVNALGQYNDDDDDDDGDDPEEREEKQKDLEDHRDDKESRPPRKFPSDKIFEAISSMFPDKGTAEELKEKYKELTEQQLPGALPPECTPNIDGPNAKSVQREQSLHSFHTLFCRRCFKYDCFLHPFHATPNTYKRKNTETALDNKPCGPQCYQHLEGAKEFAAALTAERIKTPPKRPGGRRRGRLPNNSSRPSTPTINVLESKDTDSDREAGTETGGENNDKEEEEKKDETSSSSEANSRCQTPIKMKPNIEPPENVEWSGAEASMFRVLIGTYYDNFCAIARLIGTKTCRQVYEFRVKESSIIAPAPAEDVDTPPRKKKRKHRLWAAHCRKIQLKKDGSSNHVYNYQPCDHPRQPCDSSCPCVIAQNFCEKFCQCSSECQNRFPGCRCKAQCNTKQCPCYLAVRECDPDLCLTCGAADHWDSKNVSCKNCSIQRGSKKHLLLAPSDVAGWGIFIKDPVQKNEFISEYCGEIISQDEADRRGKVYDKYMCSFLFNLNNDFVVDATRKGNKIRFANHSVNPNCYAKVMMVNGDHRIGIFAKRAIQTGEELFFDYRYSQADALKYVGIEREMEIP

## COc1cc(C2C3=C(CCCC3=O)NC3=C2C(=O)CCC3)ccc1OCc1ccc(C(=O)O)cc1
[1]
  inhibition: 24%

## CC1(C)CC(=O)C2=C(C1)NC1=C(C(=O)CC(C)(C)C1)C2c1ccc(OCc2ccccc2)c(Br)c1
[1]
  inhibition: 15%

## O=C(O)c1ccc(-c2nc3c4ccccc4c4ccccc4c3[nH]2)cc1
[2]
  IC50: 8.6 µM
[3]
  inhibition: > 70%

## O=C1CCCC2=C1C(c1ccc(OCc3ccc(C(=O)O)cc3)cc1)c1ccc3ccccc3c1N2 (stereo not drawn)
[2]
  IC50: 34 µM

## O=C1CCCC2=C1C(c1cc(Cl)c(OCc3ccc(C(=O)O)cc3)c(Cl)c1)C1=C(CCCC1=O)N2
[4]
  Activity: Active
[2]
  IC50: 34.7 µM
[5]
  Kd: 26.2 µM
[6]
  Activity: Active
[3]
  inhibition: > 70%

## O=C1CCCC2=C1C(c1ccc(OCc3cccc(F)c3)c(Br)c1)C1=C(CCCC1=O)N2
[1]
  inhibition: 26%
MV4-11 [7]
  IC50: > 100 µM
[8]
  inhibition: inactive

## CCC(=O)Nc1cccc(NC(=O)C(C)Oc2cccc(C)c2)c1 (stereo not drawn)
[3]
  inhibition: > 70%

## CN(C)CCOc1ccc(NC2Cc3ccccc3CSc3ccccc32)cc1 (stereo not drawn)
[3]
  inhibition: > 70%

## CC1(C)CC(=O)C2=C(C1)NC1=C(C(=O)CC(C)(C)C1)C2c1ccc(O)c(Br)c1
[1]
  inhibition: 18%

## COC(=O)c1cc(NC(=O)Cc2cccs2)cc(C(=O)OC)c1
[2]
  IC50: 2.9 µM
[3]
  inhibition: > 70%

## CC1=C(C#N)C(c2ccc(OCc3ccc(C(=O)O)cc3)cc2)C2=C(CCCC2=O)N1 (stereo not drawn)
[1]
  inhibition: 34%

## CC1(C)CC(=O)C2=C(C1)NC1=C(C(=O)CC(C)(C)C1)C2c1cc(Br)c(OCc2ccc(C(=O)O)cc2)c(Br)c1
MV4-11 [9]
  Activity: 0.81%
[10]
  Activity: Non-Toxic
MV4-11 [7]
  Activity: Dose-dependent effect
  IC50: 24.7 µM
MV4-11 [11]
  Activity: 16.2%
[2]
  IC50: 6.8 µM
MV4-11 [12]
  Activity: 0.41%
[5]
  Kd: 4.2 µM
MV4-11 [13]
  Activity: 1.35%
[8]
  inhibition: Active
HUVEC
  Activity: Non-Toxic
MV4-11 [14]
  Activity: 26.29%
MV4-11 [15]
  Activity: 54.6%
MV4-11 [16]
  Activity: 2.32%
MV4-11 [17]
  Activity: 84.7%
[18]
  inhibition: 21%
MV4-11 [19]
  Activity: Dose-dependent effect
MV4-11 [20]
  Activity: 0.7%
MV4-11 [21]
  Activity: 72.36%
MV4-11 [22]
  Activity: 1.3%
MV4-11 [23]
  viability at 40 µM: 42.4%
MV4-11 [24]
  Activity: Dose-dependent effect
[25]
  inhibition: 7%
MV4-11 [26]
  Activity: 13.99%
MV4-11 [27]
  viability at 20 µM: 82.5%
[28]
  inhibition: -8%

## O=c1cc(O)c2sc3nc(-c4cccs4)cc(C(F)(F)F)c3c2[nH]1
[2]
  IC50: 19 µM
[3]
  inhibition: > 70%

## O=C(O)c1ccc(COc2ccccc2Br)cc1
[2]
  IC50: 81 µM

## CC1(C)CC(=O)C2=C(C1)NC1=C(C(=O)CC(C)(C)C1)C2c1ccc(OCc2ccc(C(=O)O)cc2)c(Br)c1
[2]
  IC50: 16 µM

## COC(=O)C1=C(C)NC2=C(C(=O)CC(C)(C)C2)C1c1ccc(OCc2ccc(C(=O)O)cc2)cc1 (stereo not drawn)
[2]
  IC50: 31 µM

## COc1cc(CNC2CCCC2)ccc1OCC(=O)NC(C)(C)C
[3]
  inhibition: > 70%

## N#Cc1c(-c2ccc(F)cc2)cc(-c2cccs2)nc1SCC(=O)NCC(=O)O
[2]
  IC50: 20 µM
[3]
  inhibition: > 70%
